Measurements reported in patent US10028938B2, “Antiviral agents and uses thereof” (Griffith University, priority 2014, dated 2018).
Read-outs that look alike come from different tables or passages of the source.

How the values were obtained:
hPIV-3 HN [1] = target: T1, hPIV-3 HN (UniProt P08492); assay type: biochemical, hPIV-3 (strain C-243); set-up: rows headed: HI Mean IC50; hPIV-3 HN; 3 independent experiments; fold improvement in HI assay; other: versus 6; hPIV-3 HN HI IC50; other: text; other: text, unit given as M; details: read-out: hPIV-3 HN HI IC50
T1 sequence (P08492 1-572): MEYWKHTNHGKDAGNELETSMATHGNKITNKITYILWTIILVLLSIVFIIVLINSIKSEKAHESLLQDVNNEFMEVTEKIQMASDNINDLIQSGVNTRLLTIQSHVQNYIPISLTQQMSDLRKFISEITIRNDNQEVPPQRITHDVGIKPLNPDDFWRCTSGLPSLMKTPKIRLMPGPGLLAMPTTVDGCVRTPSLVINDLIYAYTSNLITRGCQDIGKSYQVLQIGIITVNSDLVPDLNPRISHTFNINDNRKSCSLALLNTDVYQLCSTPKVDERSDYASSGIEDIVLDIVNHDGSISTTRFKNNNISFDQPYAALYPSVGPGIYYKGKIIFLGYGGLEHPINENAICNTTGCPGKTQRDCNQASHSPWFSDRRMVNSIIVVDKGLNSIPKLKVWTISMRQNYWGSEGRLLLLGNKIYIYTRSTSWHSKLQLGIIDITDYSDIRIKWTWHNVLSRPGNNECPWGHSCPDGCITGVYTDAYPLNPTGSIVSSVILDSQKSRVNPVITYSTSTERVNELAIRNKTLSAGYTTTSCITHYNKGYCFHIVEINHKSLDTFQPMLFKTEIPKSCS

hPIV-3 HN [2] = target: hPIV-3 HN (Human parainfluenza 3 virus, UniProt P08492); assay type: biochemical, hPIV-3 (strain C-243)
hPIV-1 NI = hPIV-1 NI (Human parainfluenza 1 virus, UniProt P16071); assay: biochemical
Method: IC50 values for a number of compounds of the first aspect were determined by standard assay methods previously described in Guillon, P et al, Nature Communications (2014).

[3] = Table 5, read-out: hPIV-3 NI (IC50 values)

hPIV-1 NI, sequence (P16071 whole entry): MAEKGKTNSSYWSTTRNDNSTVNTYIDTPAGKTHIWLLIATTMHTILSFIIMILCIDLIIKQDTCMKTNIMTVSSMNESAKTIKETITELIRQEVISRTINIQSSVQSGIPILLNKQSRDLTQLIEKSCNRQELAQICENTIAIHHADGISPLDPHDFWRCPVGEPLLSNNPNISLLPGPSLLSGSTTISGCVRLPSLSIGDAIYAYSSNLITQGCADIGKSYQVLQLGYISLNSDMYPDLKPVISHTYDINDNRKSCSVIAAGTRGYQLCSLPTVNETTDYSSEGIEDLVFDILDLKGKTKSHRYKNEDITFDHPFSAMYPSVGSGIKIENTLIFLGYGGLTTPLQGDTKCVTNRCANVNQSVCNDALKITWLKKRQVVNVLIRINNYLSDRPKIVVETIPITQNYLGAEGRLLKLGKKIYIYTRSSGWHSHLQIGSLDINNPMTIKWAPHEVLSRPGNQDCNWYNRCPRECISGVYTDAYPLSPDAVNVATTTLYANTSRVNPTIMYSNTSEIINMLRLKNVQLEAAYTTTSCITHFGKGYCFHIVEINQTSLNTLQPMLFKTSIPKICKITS

CC(=O)NC1C(O)C=C(C(=O)O)OC1C(O)C(O)CO (stereo not shown) [Compound 2, Neu5Ac2en, reference compound]
IC50 (hPIV-3 HN [1]): 1440 µM

CC(=O)N[C@H]1[C@H]([C@H](O)[C@H](O)CO)OC(C(=O)O)=C[C@@H]1n1cc(CC(C)C)nn1 [IE832-8, Sodium 5-acetamido-2,6-anhydro-3,4,5-trideoxy-4-(4-isobutyl-[1,2,3,]triazol-1-yl)-D-glycero-D-galacto-non-2-enonate]
IC50 (hPIV-3 HN [2]; [3]): 54.4 µM
IC50 (hPIV-1 NI): 301 µM

CC(=O)N[C@H]1[C@H]([C@H](O)[C@H](O)CO)OC(C(=O)O)=C[C@@H]1n1cc(-c2ccc(CO)cc2)nn1 [IE832-12, Sodium 5-acetamido-2,6-anhydro-3,4,5-trideoxy-4-(4-(4-hydroxymethylphenyl)-[1,2,3,]triazol-1-yl)-D-glycero-D-galacto-non-2-enonate]
IC50 (hPIV-3 HN [2]; [3]): 51.9 µM
IC50 (hPIV-1 NI): 215 µM

COc1cccc(-c2cn([C@H]3C=C(C(=O)O)O[C@@H]([C@H](O)[C@H](O)CO)[C@@H]3NC(C)=O)nn2)c1 [IE832-20, Sodium 5-acetamido-2,6-anhydro-3,4,5-trideoxy-4-(4-(3-methoxyphenyl)-[1,2,3,]triazol-1-yl)-D-glycero-D-galacto-non-2-enonate]
IC50 (hPIV-3 HN [2]; [3]): 6.28 µM
IC50 (hPIV-1 NI): 193 µM

CCCc1cn([C@H]2C=C(C(=O)O)O[C@@H]([C@H](O)[C@H](O)CO)[C@@H]2NC(C)=O)nn1 [IE832-26, Sodium 5-acetamido-2,6-anhydro-3,4,5-trideoxy-4-(4-propyl-[1,2,3,]triazol-1-yl)-D-glycero-D-galacto-non-2-enonate]
IC50 (hPIV-3 HN [2]; [3]): 67.7 µM
IC50 (hPIV-1 NI): 95.5 µM

CC(=O)N[C@H]1[C@H]([C@H](O)[C@H](O)CO)OC(C(=O)O)=C[C@@H]1n1cc(-c2cccnc2)nn1 [IE832-27, Sodium 5-acetamido-2,6-anhydro-3,4,5-trideoxy-4-(4-(pyridin-3-yl)-[1,2,3,]triazol-1-yl)-D-glycero-D-galacto-non-2-enonate]
IC50 (hPIV-3 HN [2]; [3]): 106 µM
IC50 (hPIV-1 NI): 302 µM

COc1ccc(-c2cn([C@H]3C=C(C(=O)O)O[C@@H]([C@H](O)[C@H](O)CO)[C@@H]3NC(C)=O)nn2)cc1 [IE832-31, Sodium 5-acetamido-2,6-anhydro-3,4,5-trideoxy-4-(4-(4-methoxyphenyl)-[1,2,3,]triazol-1-yl)-D-glycero-D-galacto-non-2-enonate]
IC50 (hPIV-3 HN [2]; [3]): 22.9 µM
IC50 (hPIV-1 NI): 303 µM

COc1ccccc1-c1cn([C@H]2C=C(C(=O)O)O[C@@H]([C@H](O)[C@H](O)CO)[C@@H]2NC(C)=O)nn1 [IE832-37, Sodium 5-acetamido-2,6-anhydro-3,4,5-trideoxy-4-(4-(2-methoxyphenyl)-[1,2,3,]triazol-1-yl)-D-glycero-D-galacto-non-2-enonate]
IC50 (hPIV-3 HN [2]; [3]): 2.4 µM
IC50 (hPIV-1 NI): 201 µM

CC(=O)N[C@H]1[C@H]([C@H](O)[C@H](O)CO)OC(C(=O)O)=C[C@@H]1n1cnnn1 [IE832-98, Sodium 5-acetamido-2,6-anhydro-3,4,5-trideoxy-4-(1H-tetrazol-1-yl)-D-glycero-D-galacto-non-2-enonate]
IC50 (hPIV-3 HN [2]; [3]): 27.4 µM
IC50 (hPIV-1 NI): 7.44 µM

COc1ccccc1-c1cn([C@H]2C=C(C(=O)O)O[C@@H]([C@H](O)[C@H](O)CO)[C@@H]2NC(=O)C(C)C)nn1 [IE889-34, Sodium 2,6-anhydro-3,4,5-trideoxy-5-isobutyramido-4-(4-(2-methoxyphenyl)-[1,2,3,]triazol-1-yl)-D-glycero-D-galacto-non-2-enonate]
IC50 (hPIV-3 HN [2]; [3]): 3.23 µM
IC50 (hPIV-1 NI): 30.3 µM

CC(C)C(=O)N[C@H]1[C@H]([C@H](O)[C@H](O)CO)OC(C(=O)O)=C[C@@H]1n1cnnn1 [IE889-42, Sodium 2,6-anhydro-3,4,5-trideoxy-5-isobutyramido-4-(H-tetrazol-1-yl)-D-glycero-D-galacto-non-2-enonate]
IC50 (hPIV-3 HN [2]; [3]): 5.11 µM
IC50 (hPIV-1 NI): 0.159 µM

CC(=O)N[C@H]1[C@H]([C@H](O)[C@H](O)CO)OC(C(=O)O)=C[C@@H]1n1cc2ccccc2c1C#N [IE889-80, Sodium 5-acetamido-2,6-anhydro-4-(1-cyano-2H-isoindol-2-yl)-3,4,5-trideoxy-D-glycero-D-galacto-non-2-enonate]
IC50 (hPIV-3 HN [2]; [3]): 2.68 µM
IC50 (hPIV-1 NI): 16.9 µM

CC(C)C(=O)N[C@H]1[C@H]([C@H](O)[C@H](O)CO)OC(C(=O)O)=C[C@@H]1n1cc2ccccc2c1C#N [IE889-99, Sodium 2,6-anhydro-4-(1-cyano-2H-isoindol-2-yl)-3,4,5-trideoxy-5-isobutyramido-D-glycero-D-galacto-non-2-enonate]
IC50 (hPIV-3 HN [2]; [3]): 0.599 µM
IC50 (hPIV-1 NI): 6.22 µM

CC(C)Cc1cn([C@H]2C=C(C(=O)O)O[C@@H]([C@H](O)[C@H](O)CO)[C@@H]2NC(=O)C(C)C)nn1 [IE927-67, Sodium 2,6-anhydro-3,4,5-trideoxy-4-(4-isobutyl-[1,2,3,]triazol-1-yl)-5-isobutyramido-D-glycero-D-galacto-non-2-enonate]
IC50 (hPIV-3 HN [2]; [3]): 114 µM
IC50 (hPIV-1 NI): 47.7 µM

N#Cc1c2ccccc2cn1[C@H]1C=C(C(=O)O)O[C@@H]([C@H](O)[C@H](O)CO)[C@@H]1NC(=O)C(F)(F)F [IE927-99, Sodium 2,6-anhydro-4-(1-cyano-2H-isoindol-2-yl)-3,4,5-trideoxy-5-(2,2,2-trifluoroacetamido)-D-glycero-D-galacto-non-2-enonate]
IC50 (hPIV-3 HN [2]; [3]): 0.268 µM
IC50 (hPIV-3 HN [2]; text b135, read-out: IC50 values for hPIV-3 HN): 0.27 µM
IC50 (hPIV-1 NI): 3.09 µM

CC(=O)N[C@H]1[C@H]([C@H](O)C(O)CO)OC(C(=O)O)=C[C@@H]1n1nncc1-c1ccccc1 (stereo partly drawn) [IE1172-45, Sodium 5-acetamido-2,6-anhydro-3,4,5-trideoxy-4-(5-phenyl-[1,2,3,]triazol-1-yl)-D-glycero-D-galacto-non-2-enonate]
IC50 (hPIV-3 HN [2]; [3]): 315 µM
IC50 (hPIV-1 NI): > 1000 µM

CC(=O)N[C@H]1[C@H]([C@H](O)C(O)CO)OC(C(=O)O)=C[C@@H]1n1cc(-c2ccccc2Cl)nn1 (stereo partly drawn) [IE1172-78, Sodium 5-acetamido-2,6-anhydro-4-(4-(2-chlorophenyl)-[1,2,3,]triazol-1-yl)-3,4,5-trideoxy-D-glycero-D-galacto-non-2-enonate]
IC50 (hPIV-3 HN [2]; [3]): 2.47 µM
IC50 (hPIV-1 NI): 75.2 µM

CC(=O)N[C@H]1[C@H]([C@H](O)C(O)CO)OC(C(=O)O)=C[C@@H]1n1cc(-c2ccccc2C)nn1 (stereo partly drawn) [IE1172-82, Sodium 5-acetamido-2,6-anhydro-3,4,5-trideoxy-4-(4-(2-methylphenyl)-[1,2,3,]triazol-1-yl)-D-glycero-D-galacto-non-2-enonate]
IC50 (hPIV-3 HN [2]; [3]): 3.95 µM
IC50 (hPIV-1 NI): 57.2 µM

CC(=O)N[C@H]1[C@H]([C@H](O)C(O)CO)OC(C(=O)O)=C[C@@H]1n1cc(-c2ccccc2C(F)(F)F)nn1 (stereo partly drawn) [IE1172-83, Sodium 5-acetamido-2,6-anhydro-3,4,5-trideoxy-4-(4-(2-(trifluoromethyl)phenyl)-[1,2,3,]triazol-1-yl)-D-glycero-D-galacto-non-2-enonate]
IC50 (hPIV-3 HN [2]; [3]): 5.61 µM
IC50 (hPIV-1 NI): 73.6 µM

COCc1cnnn1[C@H]1C=C(C(=O)O)O[C@@H]([C@H](O)C(O)CO)[C@@H]1NC(C)=O (stereo partly drawn) [IE1172-87, Sodium 5-acetamido-2,6-anhydro-3,4,5-trideoxy-4-(5-methoxymethyl-[1,2,3,]triazol-1-yl)-D-glycero-D-galacto-non-2-enonate]
IC50 (hPIV-3 HN [2]; [3]): 77.4 µM
IC50 (hPIV-1 NI): 92.8 µM

CC(=O)N[C@H]1[C@H]([C@H](O)C(O)CO)OC(C(=O)O)=C[C@@H]1n1nnc(-c2ccccc2)c1-c1ccccc1 (stereo partly drawn) [IE1172-102, Sodium 5-acetamido-2,6-anhydro-3,4,5-trideoxy-4-(4,5-diphenyl-[1,2,3,]triazol-1-yl)-D-glycero-D-galacto-non-2-enonate]
IC50 (hPIV-3 HN [2]; [3]): > 1000 µM
IC50 (hPIV-1 NI): 793 µM

COCc1cn(C2C(F)[C@](F)(C(=O)O)OC([C@H](O)[C@H](O)CO)[C@@H]2NC(=O)C(C)C)nn1 (stereo partly drawn) [IE1257-24, 3,4,5-Trideoxy-3-fluoro-5-isobutyramido-4-(4-methoxymethyl-[1,2,3,]triazol-1-yl)-D-erythro-β-L-gluco-non-2-ulopyranosonic fluoride]
IC50 (hPIV-3 HN [2]; [3]): 8.49 µM
IC50 (hPIV-1 NI): 0.36 µM

CC(=O)N[C@H]1[C@H]([C@H](O)C(O)CO)OC(C(=O)O)=C[C@@H]1n1cc(-c2ccccc2Br)nn1 (stereo partly drawn) [IE1257-84, Sodium 5-acetamido-2,6-anhydro-4-(4-(2-bromophenyl)-[1,2,3,]triazol-1-yl)-3,4,5-trideoxy-D-glycero-D-galacto-non-2-enonate]
IC50 (hPIV-3 HN [2]; [3]): 2.19 µM
IC50 (hPIV-1 NI): 24.9 µM
